Test results taken from patent US12338443B2, “Photoactivatable Tet expression control system” (JAPAN SCIENCE AND TECHNOLOGY AGENCY, priority 2018, dated 2025).

T1: CIB1 (Arabidopsis thaliana, UniProt Q8GY61)
T1 sequence (Q8GY61 1-335): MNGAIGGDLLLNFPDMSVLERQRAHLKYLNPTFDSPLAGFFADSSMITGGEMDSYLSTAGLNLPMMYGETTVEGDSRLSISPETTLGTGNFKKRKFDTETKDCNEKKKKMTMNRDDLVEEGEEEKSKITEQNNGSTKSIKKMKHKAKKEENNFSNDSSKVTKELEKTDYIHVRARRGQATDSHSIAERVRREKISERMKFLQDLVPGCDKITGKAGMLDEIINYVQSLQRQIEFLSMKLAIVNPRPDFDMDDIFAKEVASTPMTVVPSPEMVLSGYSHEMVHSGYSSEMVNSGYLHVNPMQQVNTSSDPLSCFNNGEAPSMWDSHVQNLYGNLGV

B1: Cry2: Arabidopsis thaliana Cryptochrome 2 photoreceptor binding CIB1 in a blue light-specific manner (protein)
chain: MKMDKKTIVWFRRDLRIEDNPALAAAAHEGSVFPVFIWCPEEEGQFYPGRASRWWMKQSLAHLSQSLKALGSDLTLIKTHNTISAILDCIRVTGATKVVFNHLYDPVSLVRDHTVKEKLVERGISVQSYNGDLLYEPWEIYCEKGKPFTSFNSYWKKCLDMSIESVMLPPPWRLMPITAAAEAIWACSIEELGLENEAEKPSNALLTRAWSPGWSNADKLLNEFIEKQLIDYAKNSKKVVGNSTSLLSPYLHFGEISVRHVFQCARMKQIIWARDKNSEGEESADLFLRGIGLREYSRYICFNFPFTHEQSLLSHLRFFPWDADVDKFKAWRQGRTGYPLVDAGMRELWATGWMHNRIRVIVSSFAVKFLLLPWKWGMKYFWDTLLDADLECDILGWQYISGSIPDGHELDRLDNPALQGAKYDPEGEYIRQWLPELARLPTEWIHHPWDAPLTVLKASGVELGTNYAKPIVDIDTARELLAKAISRTREAQIMIGAAPDEIVADSFEALGANTIKEPGLCPSVSSNDQQVPSAVRYNGSKRVKPEEEEERDMKKSRGFDERELFSTAESSSSSSVFFVSQSCSLASEGKNLEGIQDSSDQITTSLGKNGCK
modifications: Cry2

Tests used:
[1] = tested on: pTREtight-Ub-ELuc reporter in HEK293T cells; assay: Relationship between Dox concentration and induced gene expression level (FIG. 7); format: cell-based, human
Procedure: In order to analyze the relationship between the Dox concentration and the induced gene expression level, HEK293T cells were seeded in a 24-well plate at 5 to 9×10^4 cells/well, transfected, and assayed in the same manner as in candidate construct screening. Dox was applied to the cells at concentrations of 0, 1, 7.5, 15, 20, 50, and 100 ng/mL for the PA-Tet-OFF constructs and at concentrations of 0, 10, 15, 20, 30, 35, 40, 50, 75, 100, and 250 ng/mL for the PA-Tet-ON constructs. The cells were irradiated with blue light (7.2 W/m^2; pulsed for 2 seconds every minute) for 3 hours.
In addition, for the PA-Tet-OFF system using the PA-Tet-OFF-T2A construct and the PA-Tet-independent system using the PA-Tet-H100Y construct, the influence of DOx concentration on the PA-Tet-controlled expression efficiency was investigated. Furthermore, for the PA-Tet-ON system using a construct obtained by introducing a V10 mutation into the PA-Tet-OFF-T2A construct (PA-Tet-ON-T2A construct), the influence of Dox concentration on the PA-Tet-controlled expression efficiency was investigated. The data represent mean±standard deviation (n=3) obtained from one experiment. In FIGS. 7(A) and 7(B), “*” means p<0.05 (paired student's t-test).

[2] = tested on: brain neurons of mouse pups; assay: Light- and Dox-dependent luciferase expression in brain neurons of mouse pups; format: in vivo; conditions: PA-Tet-OFF system; after single dosing of Dox 0.1 mg/g
Procedure: For irradiating the brains of mouse pups with light, anesthetized mice were stimulated through an optical fiber using a blue LED (PLEXBRIGHT®, manufactured by Plexon Inc). After being irradiated with blue light (40 W/m^2; pulsed for 1 second every 15 seconds; continued for 3 hours), the mice were immediately sacrificed, the right brain irradiated with blue light was immediately extracted and lysed, and the luciferase activity thereof was measured.
The mice were treated with Dox. For long-term Dox administration, drinking water containing 1 mg/mL Dox in a 5% by mass sucrose solution was given to the mice. […]
Next, Dox-dependent inhibition of transcriptional activity of the PA-Tet-OFF system in brain neurons was analyzed. […] The luminescence signal intensity induced by the luciferase expression in the brain cells after the light irradiation treatment was measured. Furthermore, for mice treated with Dox (0.1 mg/g (body weight)) 1 hour before the light irradiation treatment, the luminescence signal intensity was also measured in the same manner. In the mouse brain neurons (represented by “Light” in FIG. 25) subjected to the light irradiation treatment, luciferase expression was activated, and the luminescence signal intensity increased. […]
Furthermore, the restoration of light-inducible transcriptional activity after removal of Dox was analyzed in cells transfected with the PA-Tet-OFF system. […]

[3] = tested on: pTREtight-Ub-ELuc reporter in HEK293T cells; assay: Relationship between Dox concentration and gene expression induction, near-infrared light (Table 9); format: cell-based, human; design: scale not given here; conditions: 25 μM BV; for Light: near-infrared light 750 nm
Procedure: Next, for QT4, QT7 and QT8 constructs, the relationship between Dox concentration and gene expression induction was investigated. Specifically, the relationship was investigated in the same manner as in “Functional screening of PA-Tet-OFF candidate constructs” described above, except that HEK293T cells were seeded in a 24-well plate at 6×10^4 cells/well, the medium was replaced with a medium containing 25 μM BV and having Dox concentration described in Table 9 6 hours after transfection, the cells were irradiated with near-infrared light (750 nm, 4.0 mW/cm^2) for 42 hours by being exposed to light for 30 seconds every 180 seconds, and a 750 nm LED (SMBB750D-1100, manufactured by Ushio Inc.) was used as a light source. All experiments were performed in 3 independent trials (3 batches) to obtain consistent results.

[4] = tested on: pTREtight-Ub-ELuc reporter in HEK293T cells; assay: PA-Tet-independent / PA-Tet-ON construct luciferase assay with or without Dox (Example 3, Table 5); format: cell-based, human; conditions: first batch; for An initial construct screening result: Light (relative luminescence signal intensity): blue light
Procedure: For each construct, a plasmid containing the expression cassette was introduced into HEK293T cells together with a pTREtight-Ub-ELuc reporter, thereby obtaining transformed cells. These cells were irradiated with blue light in the absence of Dox or in the presence of Dox, and the light-dependent transcriptional activity of Ub-ELuc was investigated. All experiments were performed in 3 independent trials (3 batches) to obtain consistent results.

[5] = target: T1, CIB1; conditions: after light activation; cited from earlier work

Row | Molecule | Light ([3]; Dox 0 ng/mL) | Dark ([3]; Dox 1.0 ng/mL) | Light ([3]; Dox 1.0 ng/mL) | Dark ([3]; Dox 2.0 ng/mL) | Light ([3]; Dox 2.0 ng/mL) | Light ([3]; Dox 3.0 ng/mL) | Dark ([3]; Dox 4.0 ng/mL) | Light ([3]; Dox 4.0 ng/mL) | Dark ([3]; Dox 5.0 ng/mL) | Light ([3]; Dox 5.0 ng/mL) | Dark ([3]; Dox 10.0 ng/mL) | Light ([3]; Dox 10.0 ng/mL) | other results
1 | C[C@H]1c2cccc(O)c2C(=O)C2=C(O)[C@]3(O)C(=O)C(C(N)=O)=C(O)[C@@H](N(C)C)[C@@H]3[C@@H](O)[C@@H]21 [Dox, doxycycline] |  |  |  |  |  |  |  |  |  |  |  |  | extremely low Dox concentration at which the effect brought about by Dox was observed ([1]; PA-Tet-OFF system): 1 ng/mL; extremely low Dox concentration at which the effect brought about by Dox was observed ([1]; PA-Tet-ON system): 10 ng/mL; duration of inhibition of light-induced luciferase expression [2]: 4 days
2 | QT4: TetR(I194T)-SPKKK-HMEF-RpBphP1 + 2xNLS-p65AD-HMEF-Q-PAS1 (SEQ ID NO: 26, 27) | 17.7 | 0.2 | 0.2 |  |  |  |  |  |  |  |  |  | Light ([3]; Dox 0.025 ng/mL): 20.6; Light ([3]; Dox 0.050 ng/mL): 10.7; Dark ([3]; Dox 0.100 ng/mL): 0.5; Light ([3]; Dox 0.100 ng/mL): 10.1; Dark ([3]; Dox 0.200 ng/mL): 0.3; Light ([3]; Dox 0.200 ng/mL): 2.9; Dark ([3]; Dox 0.500 ng/mL): 0.2
3 | QT7: RpBphP1-TSTR-TetR(I194T) + p65AD-HMEF-Q-PAS1 (SEQ ID NO: 28, 29) | 53.7 | 2.9 | 29.9 | 2.7 | 34.7 | 25.0 | 1.3 | 17.6 | 1.6 | 16.4 | 0.3 | 3.7 | 
4 | QT8: RpBphP1-TSTR-TetR(I194T) + 2xNLS-p65AD-HMEF-Q-PAS1 (SEQ ID NO: 28, 27) | 152.0 | 14.5 | 143.1 | 17.1 | 112.2 | 108.7 | 15.1 | 86.8 | 15.2 | 63.9 | 3.1 | 7.2 | Dark ([3]; Dox 3.0 ng/mL): 16.0
5 | T86: TetR(I194T)-SPKKK-CIBN no NLS + Cry2 PHR (L348F)-p65 AD-NLSx2 (Element #1 SEQ ID NO: 5, Element #2 SEQ ID NO: 6) [Construct T86] |  |  |  |  |  |  |  |  |  |  |  |  | An initial construct screening result: Light (relative luminescence signal intensity) ([4]; Dox 0 ng/mL): 12.3; An initial construct screening result: Light (relative luminescence signal intensity) ([4]; Dox 75 ng/mL): 0.1; An initial construct screening result: Dark (relative luminescence signal intensity) ([4]; Dox 75 ng/mL, dark): 0.1
6 | B1 |  |  |  |  |  |  |  |  |  |  |  |  | half-life of spontaneous dissociation from CIB1 [5]: about 5.5 minutes
